A word on the melting point: it is the temperature of the solid-liquid transition.

Among the data in a melting point compilation (Tetko et al.) are melting point values, retold here.

The compound `CC(=O)C1CCC2C3CC=C4CC(O)CCC4(C)C3CCC12C` (configuration not stated) registered a melting point of 193 °C.
As for `Cc1cc(I)cc(C)c1O`, the figure is 99 to 102 °C; as for `Nc1ccc2ccccc2c1S(=O)(=O)O`, 180 °C; as for `CCCCOC(=O)C(=O)C1C(C)CC2C3CC(F)C4=CC(=O)C=CC4(C)C3C(O)CC21C` (configuration not stated), 195 °C.
As for `O=C(OCCO)c1ccccc1`, the figure is 45 °C; as for `N#CCc1ccc(OCc2ccc(Cl)c(Cl)c2)cc1`, 76 to 77 °C.
As for `Brc1cc(Br)c(Oc2c(Br)c(Br)c(Br)c(Br)c2Br)cc1Br`, the figure is 200 °C.
The compound `CC1=CC=CC2Cc3ccccc3C(=O)N12` (configuration not stated) gave a melting point of 98 °C.
On to `COC(=O)c1ccc(CN2CCN(C(=O)OC(C)(C)C)CC2)cc1`, for which the melting point is 78 to 80 °C.
As for `CCOC(=O)Cc1csc(N)n1`, the figure is 91 to 95 °C.
As for `O=C(O)c1ccc(Cn2cncn2)cc1`, the figure is 227 to 229 °C; as for `Nc1ncnc2c1ncn2[C@H]1C=C[C@@H](CO)O1`, 189 to 191 °C; as for `CN(C)CCC=C1c2ccccc2Sc2ccc(Cl)cc21`, 97.5 °C.
`CCCCCC(O)C=CC1C(O)CC(O)C1CC=CCCCC(=O)O` (configuration not stated) returned a melting point of 30 °C.
As for `Cc1cc(CO)ccc1[N+](=O)[O-]`, the figure is 56 to 60 °C; as for `COc1cc(Br)cc(OC)c1OC`, 78.5 °C.
The result for `CCOC(=O)C(=NNc1ccccc1[N+](=O)[O-])C(=O)OCC` reads 196 °C.
As for `N=C1NC(=O)C(=NNc2cccc([N+](=O)[O-])c2)S1`, the figure is 208 °C; as for `O=C(O)c1ccc(Sc2ccc(Cl)cc2)c([N+](=O)[O-])c1`, 217 to 220 °C; as for `CC1=C(C(=O)OCc2ccccc2)C(c2ccccc2)N(C)C(=O)N1C` (configuration not stated), 86 °C.
`O=C(O)CC(O)(C(F)(F)F)C(F)(F)F` came in with a melting point of 87 °C.
The result for `CCOC(=O)C(CCC(=O)O)(CCC(=O)O)C(C)=O` reads 105 to 108 °C; that for `O=[N+]([O-])c1ccc(C(Cl)C(Cl)c2cccc(C(Cl)C(Cl)c3ccc([N+](=O)[O-])cc3[N+](=O)[O-])c2)c([N+](=O)[O-])c1` (configuration not stated), 90 to 108 °C.
As for `CC(=O)Nc1cccc(C=CC(=O)c2ccccc2)c1`, the figure is 104 °C.
Compound `CC(=O)OC1CCC2(C)C3CCC4(C)C(C(C)CCCC(C)C)CCC4C3CC(OC(C)=O)C2(O)C1` (configuration not stated) returned a melting point of 164 °C.
`Clc1cc(Cl)c(Cl)c(Br)c1` displayed a melting point of 59 °C.
`FC(F)(F)c1n[nH]c(=S)[nH]1` returned a melting point of 161 to 164 °C.
The result for `CC1(C)CC(=O)c2cc(-c3ccccc3)n(Cc3ccc(Cl)cc3)c2C1` reads 115 to 117 °C; that for `CC(C)CC(C)(O)C#CC(C)(O)CC(C)C` (configuration not stated), 42 to 44 °C; that for `COC(=O)C1(C(=O)OC)Cc2c(C)cccc2C(=O)O1`, 100 °C.
The result for `O=c1ccn(C2CC(O)C(CO)O2)c(=O)[nH]1` (configuration not stated) reads 166 °C; that for `CSc1nc2ccc(N)cc2s1`, 105 to 107 °C.
Turning to `Cn1ncc(C(=O)Cl)c1Cl`, the melting point was in the range of 50 to 52 °C.
As for `C=CC[Si](c1ccccc1)(c1ccccc1)c1ccccc1`, the figure is 88 to 90 °C.
As for `CCOC(=O)C(C#N)=NNc1ccc(C(=O)O)cc1`, the figure is 219 °C; as for `CC(=O)OCC(COC(C)=O)(COC(C)=O)COC(C)=O`, 83.5 °C; as for `CC(C)(CC(=O)O)c1ccccc1`, 60 °C.
The result for `CCCCc1ccc(C(N)=O)cc1` reads 127 to 129 °C; that for `O=C(Nc1ccccc1[N+](=O)[O-])C(C(F)(F)F)C(F)(F)F`, 156 °C.
`CC(CCC(/C=N/NC(N)=O)C(C)C)C(=O)O` (configuration not stated): the melting point was found to be 152 °C.
`CCn1cc(C(=O)O)c(=O)c2cnc(N3CCCC3)nc21` had a melting point of 315 °C.
With `O=C(O)c1ccc2ccccc2c1O`, the melting point lay within 199 to 205 °C.
As for `COc1cc2c(cc1OC)C13CCN4CC5=CCOC6CC(=O)N2C1C6C5CC43` (configuration not stated), the figure is 178 °C.
As for `N#CCS(=O)(=O)Cc1ccc(Cl)cc1`, the figure is 179 to 182 °C; as for `Cc1sc2ncnc(Cl)c2c1C`, 112 to 113 °C; as for `NNC(=O)c1ccc(N)c(N)c1`, 149 °C.
The result for `CC(=O)C(C(C)=O)=C1SC2=C(C(=O)c3ccccc3C2=O)N1c1ccccc1` reads 254 °C.
In the case of `Cn1c(=O)c(C2=NNC(=O)C2=Cc2cccc([N+](=O)[O-])c2)c(O)c2ccccc21`, the melting point turned out to be 261 °C.
The result for `C[C@]12CCC(=O)C[C@@H]1CC[C@@H]1[C@@H]2CC[C@]2(C)C(=O)C=C[C@@H]12` reads 172 to 173 °C; that for `CC1OC(O)C(O)C(O)C1O` (configuration not stated), 144 to 145 °C; that for `O=c1[nH]c(=O)n(CCO)c2c1CCCC2`, 275 to 278 °C.
Turning to `NC(=O)c1sc(Nc2ccccc2)nc1N`, the melting point was found to be 205 °C.
The result for `O=C1OC(c2ccccc2)=NC1=Cc1cc([N+](=O)[O-])ccc1O` reads 231 to 232 °C.
As for `C=C=O`, the figure is -151 °C; as for `O=C(O)COc1ccccc1Br`, 141 to 145 °C; as for `CCc1ccc(C#Cc2ccc(C)cc2)cc1`, 73 °C.
As to `CC1CN2CC(=O)Nc3ccc(Cl)cc3C2(c2ccccc2)O1` (configuration not stated), the melting point came to 186 °C.
`Nc1nc(Cl)c2nc[nH]c2n1` displayed a melting point of 300 °C.
As for `CCOC(=O)c1sc(-c2ccccn2)nc1CBr`, the figure is 102 °C; as for `C=C(C)C(CC)CC`, -113 °C.
The result for `CNC(=O)ON=CC(C)(C)SC` reads 99 °C; that for `c1ccc(Cc2cc3ccccc3cn2)cc1`, 64 °C; that for `Cc1cc([N+](=O)[O-])cc(Cl)c1N`, 175 °C.
As for `CC(=O)N(Nc1ccc(-c2ccc([N+](=O)[O-])cc2)cc1)c1ccccc1`, the figure is 161 °C.
With `COc1ccc(C=C2C3=C(CCCC3)OC3=C2CCCC3)cc1`, the melting point was 123 to 124 °C.
As for `O=[N+]([O-])c1ccc(/C=C/C=C/C=C/c2ccc([N+](=O)[O-])cc2)cc1`, the figure is 240 °C.
As to `Cc1[nH]c2ccccc2c1CC(=O)O`, the melting point was found to be 200 °C.
As for `Cc1ccc(-n2c(=O)cc(C)n2C)cc1`, the figure is 130 to 137 °C; as for `Cn1cnc(N)c2ncnc1-2`, 300 °C; as for `Nc1cnn(-c2ccccc2)c(=O)c1Cl`, 206 °C.
The result for `O=C(Nc1ccccc1)OCC1(COC(=O)Nc2ccccc2)CCCC1` reads 152 °C; that for `Cc1ccc(Cc2c(N)nn3c(C)cc(C)nc23)cc1`, 178 to 179 °C; that for `ClC1=C(Cl)C(Cl)(Cl)C(Cl)(Cl)C1(Cl)Cl`, 40 °C.
Compound `CC(=O)c1ccc(S(=O)(=O)Cl)cc1` gave a melting point of 84 °C.
The result for `O=c1ccnc2n(-c3ccccc3)[nH]cc1-2` reads 167 °C; that for `O=C1CC[C@@H](COC(c2ccccc2)(c2ccccc2)c2ccccc2)O1`, 148 to 152 °C.
As for `CN(C)CC(=O)N1c2ccccc2Sc2ccccc21`, the figure is 144 °C; as for `O=C1CCCN1c1ccc(F)cc1`, 55 to 58 °C.
The result for `CC12C=CC(=O)C=C1CCC1C2C(O)CC2(C)C1CCC2(O)C(=O)COC(=O)CCCc1ccc(N(CCCl)CCCl)cc1` (configuration not stated) reads 164 °C.
Consider `OCCN(CCO)c1nc(N2CCCCC2)c2nc(N(CCO)CCO)ncc2n1`, for which the melting point was found to be 158 °C.
As for `Cc1cccc(Cn2nc(C(C)(C)C)cc2C(=O)NN)c1`, the figure is 102 to 104 °C.
Turning to `O=[N+]([O-])c1cc(Cl)c(O)c(Cl)c1`, the melting point worked out at 127 °C.
As for `CC(C)(C)OC(=O)N1CC(=O)CC1C(=O)O` (configuration not stated), the figure is 155 to 156 °C; as for `COC(=O)c1ccc2ncccc2c1`, 88 to 89 °C; as for `O=Cc1ccc(-c2cccnc2)cc1`, 55 °C.
On to `Nc1nn2c(C(F)(F)F)cc(=O)[nH]c2c1/N=N/c1ccc(S(=O)(=O)O)cc1`, for which the melting point was determined as 292 °C.
As for `CN(c1ccccc1)c1ccccc1`, the figure is -7.6 °C.
Consider `NC(=S)Nc1cccc(F)c1`, for which the melting point is 113 to 117 °C.
As for `O=C(O)c1c(F)c(F)cc(F)c1F`, the figure is 151 °C; as for `O=C(Cl)c1ccc(-c2ccccc2)s1`, 76 to 80 °C.
As for `CCC(/C(=N/Nc1ccc([N+](=O)[O-])cc1[N+](=O)[O-])c1ccc(OC)cc1)C1CCCCC1` (configuration not stated), the figure is 200 to 201 °C; as for `O=c1[nH]c2ccc(Br)cc2s1`, 228 to 232 °C.
The result for `O=C1CCCCC1` reads -26 °C.
`Cc1nsc(-c2ccc(Cl)cc2)n1` gave a melting point of 81 to 83 °C.
The result for `CC(Br)C(Br)CBr` (configuration not stated) reads -19 °C.
Take `COC(=O)c1scc(C)c1Cl`: the melting point was 76 to 78 °C.
On to `FC(F)(F)C(F)(F)C(F)(F)C(F)(F)C(F)(F)I`, for which the melting point was -50 °C.
Regarding `CCCCCCCCCCCCCCCCCCN=C=O`, the melting point turned out to be 20 °C.
`CC1=C(O)C(=O)C2OC2C1=O` (configuration not stated) showed a melting point of 127 °C.
As for `CC12CCCC1C1CCC3CC(OCc4ccccc4)CCC3(C)C1CC2` (configuration not stated), the figure is 148 °C; as for `Cn1ccc(-c2ccc(CCl)cc2)n1`, 78 to 80 °C; as for `N#Cc1c(NC(=O)CN2CCOCC2)sc2c1CCCC2`, 178 to 179 °C.
`Nc1nsc(-c2ccc(Cl)cc2)n1`: the melting point is 201 to 202 °C.
The result for `Nc1ncnc2[nH]ncc12` reads 325 °C; that for `NCCCS(=O)(=O)O`, 270 °C.
The result for `O=C(NNc1ccccc1)c1ccccc1` reads 168 °C; that for `FC(F)(F)c1n[nH]c(/N=C/c2ccc(Cl)cc2)n1`, 233 °C.
